Test results as given in publication PMC9571063 (Molecules, 2022).

Columns and labels:
Experiment in all cases: KINOMEscan
Format in all cases: binding
Details in all cases: read-out: Percent Control
PRKCH = molecular target: T1, PRKCH (Homo sapiens, UniProt P24723)
T1 construct: purchased Eurofins DiscoverX KINOMEscan (scanMAX 468)

MYLK2 = molecular target: T2, MYLK2 (Homo sapiens, UniProt Q9H1R3)
T2 construct: purchased Eurofins DiscoverX KINOMEscan (scanMAX 468)

MARK2 = molecular target: T3, MARK2 (Homo sapiens, UniProt Q7KZI7)
T3 construct: purchased Eurofins DiscoverX KINOMEscan (scanMAX 468)

RET(V804M) = molecular target: T4, RET(V804M) (Homo sapiens, UniProt P07949, V804M)
T4 construct: purchased Eurofins DiscoverX KINOMEscan (scanMAX 468)

TRKA = molecular target: T5, TRKA (Homo sapiens, UniProt P04629)
T5 construct: purchased Eurofins DiscoverX KINOMEscan (scanMAX 468)

NEK7 = molecular target: T6, NEK7 (Homo sapiens, UniProt Q8TDX7)
T6 construct: purchased Eurofins DiscoverX KINOMEscan (scanMAX 468)

CDKL5 = molecular target: T7, CDKL5 (Homo sapiens, UniProt O76039)
T7 construct: purchased Eurofins DiscoverX KINOMEscan (scanMAX 468)

MAP3K4 = molecular target: T8, MAP3K4 (Homo sapiens, UniProt Q9Y6R4)
T8 construct: purchased Eurofins DiscoverX KINOMEscan (scanMAX 468)

PKMYT1 = molecular target: T9, PKMYT1 (Homo sapiens, UniProt Q99640)
T9 construct: purchased Eurofins DiscoverX KINOMEscan (scanMAX 468)

EPHB1 = molecular target: T10, EPHB1 (Homo sapiens, UniProt P54762)
T10 construct: purchased Eurofins DiscoverX KINOMEscan (scanMAX 468)

PIK3CA(E545A) = molecular target: T11, PIK3CA(E545A) (Homo sapiens, UniProt P42336, E545A)
T11 construct: purchased Eurofins DiscoverX KINOMEscan (scanMAX 468)

ASK2 = molecular target: T12, ASK2 (Homo sapiens, UniProt O95382)
T12 construct: purchased Eurofins DiscoverX KINOMEscan (scanMAX 468)

PLK2 = molecular target: T13, PLK2 (Homo sapiens, UniProt Q9NYY3)
T13 construct: purchased Eurofins DiscoverX KINOMEscan (scanMAX 468)

AMPK-alpha1 = molecular target: T14, AMPK-alpha1 (Homo sapiens, UniProt Q13131)
T14 construct: purchased Eurofins DiscoverX KINOMEscan (scanMAX 468)

FER = molecular target: T15, FER (Homo sapiens, UniProt P16591)
T15 construct: purchased Eurofins DiscoverX KINOMEscan (scanMAX 468)

TEC = molecular target: T16, TEC (Homo sapiens, UniProt P42680)
T16 construct: purchased Eurofins DiscoverX KINOMEscan (scanMAX 468)

CSNK1G3 = molecular target: T17, CSNK1G3 (Homo sapiens, UniProt Q9Y6M4)
T17 construct: purchased Eurofins DiscoverX KINOMEscan (scanMAX 468)

p38-alpha = molecular target: T18, p38-alpha (Homo sapiens, UniProt Q16539)
T18 construct: purchased Eurofins DiscoverX KINOMEscan (scanMAX 468)

WNK4 = molecular target: T19, WNK4 (Homo sapiens, UniProt Q96J92)
T19 construct: purchased Eurofins (KINOMEscan, DiscoverX)

[1] = molecular target: T20, JAK1(JH1domain-catalytic) (Homo sapiens, UniProt P23458)
T20 construct: JAK1(JH1domain-catalytic); purchased Eurofins DiscoverX KINOMEscan (scanMAX 468)

[2] = molecular target: T21, RSK4(Kin.Dom.2-C-terminal) (Homo sapiens, UniProt Q9UK32)
T21 construct: RSK4(Kin.Dom.2-C-terminal); purchased Eurofins DiscoverX KINOMEscan (scanMAX 468)

PHKG2 = molecular target: T22, PHKG2 (Homo sapiens, UniProt P15735)
T22 construct: purchased Eurofins DiscoverX KINOMEscan (scanMAX 468)

[3] = molecular target: T23, EGFR(L747-E749del, A750P) (Homo sapiens, UniProt P00533, A750P/DEL747-749)
T23 construct: purchased Eurofins DiscoverX KINOMEscan (scanMAX 468)

EGFR(E746-A750del) = molecular target: T24, EGFR(E746-A750del) (Homo sapiens, UniProt P00533, DEL746-750)
T24 construct: purchased Eurofins DiscoverX KINOMEscan (scanMAX 468)

RIPK1 = molecular target: T25, RIPK1 (Homo sapiens, UniProt Q13546)
T25 construct: purchased Eurofins DiscoverX KINOMEscan (scanMAX 468)

CSF1R-autoinhibited = molecular target: T26, CSF1R-autoinhibited (Homo sapiens, UniProt P07333)
T26 construct: purchased Eurofins DiscoverX KINOMEscan (scanMAX 468)

FAK = molecular target: T27, FAK (Homo sapiens, UniProt Q05397)
T27 construct: purchased Eurofins DiscoverX KINOMEscan (scanMAX 468)

CAMK1G = molecular target: T28, CAMK1G (Homo sapiens, UniProt Q96NX5)
T28 construct: purchased Eurofins DiscoverX KINOMEscan (scanMAX 468)

PDPK1 = molecular target: T29, PDPK1 (Homo sapiens, UniProt O15530)
T29 construct: purchased Eurofins DiscoverX KINOMEscan (scanMAX 468)

CDK4-cyclinD1 = molecular target: T30, CDK4-cyclinD1 (Homo sapiens, UniProt P11802)
T30 construct: purchased Eurofins DiscoverX KINOMEscan (scanMAX 468)

GAK = molecular target: T31, GAK (Homo sapiens, UniProt O14976)
T31 construct: purchased Eurofins DiscoverX KINOMEscan (scanMAX 468)

BUB1 = molecular target: T32, BUB1 (Homo sapiens, UniProt O43683)
T32 construct: purchased Eurofins DiscoverX KINOMEscan (scanMAX 468)

[4] = molecular target: T33, ABL1(M351T)-phosphorylated (Homo sapiens, UniProt P00519, M351T)
T33 construct: purchased Eurofins DiscoverX KINOMEscan (scanMAX 468)

NEK9 = molecular target: T34, NEK9 (Homo sapiens, UniProt Q8TD19)
T34 construct: purchased Eurofins DiscoverX KINOMEscan (scanMAX 468)

[5] = molecular target: T35, ABL1(T315I)-phosphorylated (Homo sapiens, UniProt P00519, T315I)
T35 construct: purchased Eurofins DiscoverX KINOMEscan (scanMAX 468)

EPHB4 = molecular target: T36, EPHB4 (Homo sapiens, UniProt P54760)
T36 construct: purchased Eurofins DiscoverX KINOMEscan (scanMAX 468)

VRK2 = molecular target: T37, VRK2 (Homo sapiens, UniProt Q86Y07)
T37 construct: purchased Eurofins DiscoverX KINOMEscan (scanMAX 468)

[6] = molecular target: T38, ABL1(E255K)-phosphorylated (Homo sapiens, UniProt P00519, E255K)
T38 construct: purchased Eurofins DiscoverX KINOMEscan (scanMAX 468)

SRPK1 = molecular target: T39, SRPK1 (Homo sapiens, UniProt Q96SB4)
T39 construct: purchased Eurofins DiscoverX KINOMEscan (scanMAX 468)

MAST1 = molecular target: T40, MAST1 (Homo sapiens, UniProt Q9Y2H9)
T40 construct: purchased Eurofins DiscoverX KINOMEscan (scanMAX 468)

CAMK2G = molecular target: T41, CAMK2G (Homo sapiens, UniProt Q13555)
T41 construct: purchased Eurofins DiscoverX KINOMEscan (scanMAX 468)

PIKFYVE = molecular target: T42, PIKFYVE (Homo sapiens, UniProt Q9Y2I7)
T42 construct: purchased Eurofins DiscoverX KINOMEscan (scanMAX 468)

T12 sequence (O95382 whole entry): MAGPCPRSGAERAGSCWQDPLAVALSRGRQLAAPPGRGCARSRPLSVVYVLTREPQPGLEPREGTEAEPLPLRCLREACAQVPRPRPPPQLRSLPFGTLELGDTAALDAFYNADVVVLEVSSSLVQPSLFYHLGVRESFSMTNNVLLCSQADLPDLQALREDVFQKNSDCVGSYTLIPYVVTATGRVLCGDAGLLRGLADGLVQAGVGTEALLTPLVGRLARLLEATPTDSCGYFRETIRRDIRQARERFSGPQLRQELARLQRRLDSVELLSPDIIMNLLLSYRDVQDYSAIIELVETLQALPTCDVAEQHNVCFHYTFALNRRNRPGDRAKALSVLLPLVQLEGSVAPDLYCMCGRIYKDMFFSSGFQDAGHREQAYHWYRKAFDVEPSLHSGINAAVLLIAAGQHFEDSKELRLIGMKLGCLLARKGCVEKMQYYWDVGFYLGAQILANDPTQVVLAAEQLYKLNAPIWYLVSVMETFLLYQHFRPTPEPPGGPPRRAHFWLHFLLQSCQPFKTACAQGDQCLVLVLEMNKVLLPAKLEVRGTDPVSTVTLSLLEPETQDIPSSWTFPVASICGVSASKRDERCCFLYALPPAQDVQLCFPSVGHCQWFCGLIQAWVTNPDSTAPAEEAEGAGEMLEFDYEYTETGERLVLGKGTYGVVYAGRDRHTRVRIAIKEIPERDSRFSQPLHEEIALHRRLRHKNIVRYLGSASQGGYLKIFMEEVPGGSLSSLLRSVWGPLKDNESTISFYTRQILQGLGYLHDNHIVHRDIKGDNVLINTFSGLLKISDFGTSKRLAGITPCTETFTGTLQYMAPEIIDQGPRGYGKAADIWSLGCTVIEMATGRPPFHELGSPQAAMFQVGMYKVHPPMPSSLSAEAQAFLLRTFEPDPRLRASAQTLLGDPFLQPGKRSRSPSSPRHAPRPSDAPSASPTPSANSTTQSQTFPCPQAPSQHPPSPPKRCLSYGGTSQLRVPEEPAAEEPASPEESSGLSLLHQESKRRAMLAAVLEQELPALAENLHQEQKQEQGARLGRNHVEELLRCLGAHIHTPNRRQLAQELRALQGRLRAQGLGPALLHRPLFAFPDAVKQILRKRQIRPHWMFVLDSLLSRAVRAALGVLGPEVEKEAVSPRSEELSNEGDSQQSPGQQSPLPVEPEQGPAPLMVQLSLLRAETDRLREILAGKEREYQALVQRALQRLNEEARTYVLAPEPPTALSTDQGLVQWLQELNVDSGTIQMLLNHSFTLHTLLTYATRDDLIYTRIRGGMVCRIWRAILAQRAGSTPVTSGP
T28 sequence (Q96NX5 whole entry): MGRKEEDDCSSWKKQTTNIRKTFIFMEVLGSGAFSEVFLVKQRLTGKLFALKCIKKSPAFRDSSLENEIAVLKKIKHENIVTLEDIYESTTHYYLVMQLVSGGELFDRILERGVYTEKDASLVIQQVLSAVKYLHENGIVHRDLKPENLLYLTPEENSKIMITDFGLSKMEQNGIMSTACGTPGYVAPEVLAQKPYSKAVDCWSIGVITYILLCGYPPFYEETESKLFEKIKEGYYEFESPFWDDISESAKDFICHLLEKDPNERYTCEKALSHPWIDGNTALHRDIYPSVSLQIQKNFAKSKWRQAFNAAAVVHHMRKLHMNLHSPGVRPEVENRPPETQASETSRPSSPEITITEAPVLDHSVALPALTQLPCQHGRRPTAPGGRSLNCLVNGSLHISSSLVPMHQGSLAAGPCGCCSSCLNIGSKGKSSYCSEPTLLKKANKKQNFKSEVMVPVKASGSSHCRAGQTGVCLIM
T26 sequence (P07333 539-972 limits assumed): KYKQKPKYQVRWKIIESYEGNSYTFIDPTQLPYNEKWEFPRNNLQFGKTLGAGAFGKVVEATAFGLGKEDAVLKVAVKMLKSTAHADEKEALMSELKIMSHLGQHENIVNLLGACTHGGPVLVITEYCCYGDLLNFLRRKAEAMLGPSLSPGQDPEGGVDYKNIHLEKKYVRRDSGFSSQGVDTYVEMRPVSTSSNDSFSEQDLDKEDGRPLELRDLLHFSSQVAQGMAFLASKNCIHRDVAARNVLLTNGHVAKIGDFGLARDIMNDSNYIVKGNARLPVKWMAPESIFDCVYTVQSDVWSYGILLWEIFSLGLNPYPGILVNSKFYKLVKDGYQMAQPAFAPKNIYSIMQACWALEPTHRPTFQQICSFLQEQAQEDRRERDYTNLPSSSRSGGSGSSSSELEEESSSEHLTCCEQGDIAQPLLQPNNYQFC
T36 sequence (P54760 16-987): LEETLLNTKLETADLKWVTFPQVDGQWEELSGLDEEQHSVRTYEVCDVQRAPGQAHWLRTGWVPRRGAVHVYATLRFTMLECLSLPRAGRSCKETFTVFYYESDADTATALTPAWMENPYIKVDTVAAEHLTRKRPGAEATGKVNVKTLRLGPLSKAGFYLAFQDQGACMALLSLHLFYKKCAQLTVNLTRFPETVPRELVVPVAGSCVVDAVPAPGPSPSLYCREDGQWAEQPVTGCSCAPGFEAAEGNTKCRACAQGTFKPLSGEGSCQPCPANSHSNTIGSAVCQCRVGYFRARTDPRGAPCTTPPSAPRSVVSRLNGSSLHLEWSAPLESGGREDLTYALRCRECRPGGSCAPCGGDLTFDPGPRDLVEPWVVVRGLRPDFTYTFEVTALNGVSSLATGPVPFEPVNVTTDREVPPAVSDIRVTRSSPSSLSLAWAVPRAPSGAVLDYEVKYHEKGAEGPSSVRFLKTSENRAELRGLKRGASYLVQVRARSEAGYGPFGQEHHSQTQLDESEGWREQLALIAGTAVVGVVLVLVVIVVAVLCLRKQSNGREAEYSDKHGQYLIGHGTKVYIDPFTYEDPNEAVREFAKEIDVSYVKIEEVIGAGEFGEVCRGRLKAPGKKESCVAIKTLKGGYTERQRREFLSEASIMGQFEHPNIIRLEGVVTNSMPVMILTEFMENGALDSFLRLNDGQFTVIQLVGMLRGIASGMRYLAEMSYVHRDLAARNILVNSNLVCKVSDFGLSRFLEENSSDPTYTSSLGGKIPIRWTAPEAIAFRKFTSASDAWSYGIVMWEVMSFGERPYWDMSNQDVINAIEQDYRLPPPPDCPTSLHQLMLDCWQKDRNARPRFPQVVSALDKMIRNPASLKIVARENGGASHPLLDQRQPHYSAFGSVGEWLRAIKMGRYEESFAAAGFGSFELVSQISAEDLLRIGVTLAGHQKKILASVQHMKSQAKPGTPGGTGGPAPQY
T31 sequence (O14976 whole entry): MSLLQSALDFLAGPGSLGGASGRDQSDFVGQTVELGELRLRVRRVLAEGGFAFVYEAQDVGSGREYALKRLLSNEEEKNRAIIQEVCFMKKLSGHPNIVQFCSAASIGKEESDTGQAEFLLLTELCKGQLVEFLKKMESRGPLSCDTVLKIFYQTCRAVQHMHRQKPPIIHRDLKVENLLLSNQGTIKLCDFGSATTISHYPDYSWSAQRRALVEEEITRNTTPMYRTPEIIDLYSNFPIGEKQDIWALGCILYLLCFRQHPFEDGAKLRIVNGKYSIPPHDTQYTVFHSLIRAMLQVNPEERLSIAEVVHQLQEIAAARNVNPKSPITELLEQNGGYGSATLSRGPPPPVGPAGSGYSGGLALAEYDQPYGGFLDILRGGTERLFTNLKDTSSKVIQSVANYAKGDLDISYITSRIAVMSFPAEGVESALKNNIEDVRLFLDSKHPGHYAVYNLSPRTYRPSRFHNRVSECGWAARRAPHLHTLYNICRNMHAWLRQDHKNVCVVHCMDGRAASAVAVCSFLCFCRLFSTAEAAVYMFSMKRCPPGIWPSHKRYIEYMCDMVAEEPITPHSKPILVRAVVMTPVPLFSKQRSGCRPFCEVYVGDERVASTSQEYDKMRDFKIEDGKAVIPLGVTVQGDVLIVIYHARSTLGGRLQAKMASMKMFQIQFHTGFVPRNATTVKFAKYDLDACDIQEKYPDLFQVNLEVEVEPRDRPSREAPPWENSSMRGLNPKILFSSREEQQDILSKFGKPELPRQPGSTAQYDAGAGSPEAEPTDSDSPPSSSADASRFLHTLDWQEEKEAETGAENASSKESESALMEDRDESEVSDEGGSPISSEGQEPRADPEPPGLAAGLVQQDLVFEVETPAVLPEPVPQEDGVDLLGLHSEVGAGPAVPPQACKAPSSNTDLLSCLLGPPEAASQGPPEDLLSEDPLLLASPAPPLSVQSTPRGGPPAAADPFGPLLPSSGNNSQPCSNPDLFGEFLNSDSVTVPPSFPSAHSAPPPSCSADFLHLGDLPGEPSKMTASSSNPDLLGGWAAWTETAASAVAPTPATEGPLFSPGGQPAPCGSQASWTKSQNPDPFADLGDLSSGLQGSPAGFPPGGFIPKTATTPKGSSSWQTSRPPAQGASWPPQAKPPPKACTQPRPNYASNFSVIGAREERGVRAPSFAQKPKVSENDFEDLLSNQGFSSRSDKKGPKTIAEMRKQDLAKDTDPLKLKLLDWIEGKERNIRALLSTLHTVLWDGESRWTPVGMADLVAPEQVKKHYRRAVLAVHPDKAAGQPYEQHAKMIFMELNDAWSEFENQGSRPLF
T41 sequence (Q13555 whole entry): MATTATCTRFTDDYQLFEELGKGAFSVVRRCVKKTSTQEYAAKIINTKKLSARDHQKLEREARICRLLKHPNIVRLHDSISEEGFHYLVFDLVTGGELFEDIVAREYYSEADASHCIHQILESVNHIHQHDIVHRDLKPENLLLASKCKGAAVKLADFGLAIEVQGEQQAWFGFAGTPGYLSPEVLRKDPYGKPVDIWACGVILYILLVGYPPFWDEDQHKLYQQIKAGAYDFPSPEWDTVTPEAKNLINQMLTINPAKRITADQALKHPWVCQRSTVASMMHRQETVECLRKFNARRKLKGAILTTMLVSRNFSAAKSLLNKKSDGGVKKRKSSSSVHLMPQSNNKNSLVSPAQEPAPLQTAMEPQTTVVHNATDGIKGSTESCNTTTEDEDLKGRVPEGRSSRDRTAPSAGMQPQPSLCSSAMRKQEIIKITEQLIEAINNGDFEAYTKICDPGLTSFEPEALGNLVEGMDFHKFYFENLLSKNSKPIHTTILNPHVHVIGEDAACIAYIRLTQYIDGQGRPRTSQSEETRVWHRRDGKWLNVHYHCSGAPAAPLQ

Cc1ccc(-n2cc(COc3cccc4cnc(Nc5cccc(Cl)c5)nc34)nn2)c([N+](=O)[O-])c1 [DB18]
remaining binding at 1 µM (PRKCH): 100%
remaining binding at 1 µM (MYLK2): 100%
remaining binding at 1 µM (MARK2): 94%
remaining binding at 1 µM (RET(V804M)): 96%
remaining binding at 1 µM (TRKA): 8.9%
remaining binding at 1 µM (NEK7): 85%
remaining binding at 1 µM (CDKL5): 100%
remaining binding at 1 µM (MAP3K4): 100%
remaining binding at 1 µM (PKMYT1): 62%
remaining binding at 1 µM (EPHB1): 100%
remaining binding at 1 µM (PIK3CA(E545A)): 100%
remaining binding at 1 µM (ASK2): 99%
remaining binding at 1 µM (PLK2): 100%
remaining binding at 1 µM (AMPK-alpha1): 94%
remaining binding at 1 µM (FER): 100%
remaining binding at 1 µM (TEC): 100%
remaining binding at 1 µM (CSNK1G3): 100%
remaining binding at 1 µM (p38-alpha): 100%
remaining binding at 1 µM (WNK4): 100%
remaining binding at 1 µM [1]: 100%
remaining binding at 1 µM [2]: 100%
remaining binding at 1 µM (PHKG2): 95%
remaining binding at 1 µM [3]: 93%
remaining binding at 1 µM (EGFR(E746-A750del)): 82%
remaining binding at 1 µM (RIPK1): 100%
remaining binding at 1 µM (CSF1R-autoinhibited): 71%
remaining binding at 1 µM (FAK): 100%
remaining binding at 1 µM (CAMK1G): 100%
remaining binding at 1 µM (PDPK1): 92%
remaining binding at 1 µM (CDK4-cyclinD1): 93%
remaining binding at 1 µM (GAK): 100%
remaining binding at 1 µM (BUB1): 97%
remaining binding at 1 µM [4]: 99%
remaining binding at 1 µM (NEK9): 100%
remaining binding at 1 µM [5]: 100%
remaining binding at 1 µM (EPHB4): 100%
remaining binding at 1 µM (VRK2): 100%
remaining binding at 1 µM [6]: 97%
remaining binding at 1 µM (SRPK1): 100%
remaining binding at 1 µM (MAST1): 79%
remaining binding at 1 µM (CAMK2G): 100%
remaining binding at 1 µM (PIKFYVE): 61%
